Patent publication US12714696B2, “Low dose fluralaner compositions for protection against parasitic invertebrate pest” (VIRBAC, priority 2019, dated 2026)
Read-outs that look alike come from different tables or passages of the source.

Assays:
[1] = Adverse event observation, oral study against ticks; type: in vivo, beagle dogs; conditions: oral 250/35/600 μg/kg regimen, dogs
Method: Dogs assigned to group 1 received the control product and served as Placebo controls. Dogs were observed hourly±15 minutes for four hours after administration on Day 0 and once daily two hours±15 minutes after Investigational Veterinary Product or control product administration on Days 1, 2 and 3. Observations were conducted for each individual dog.

[2] = cited from earlier work
[3] = Comparison of plasma concentration simulated from experimental data with literature data; set-up: species or system dogs; conditions: simulation from experimental data (Table 6)
[4] = cited from earlier work; remark: listed apart in the source
[5] = Intravenous 12.5 mg/kg, single, dogs, n = 6, mean ± standard deviation
[6] = Oral 12.5 mg/kg, single, dogs, n = 6, mean ± standard deviation
[7] = Oral 25.0 mg/kg, single, dogs, n = 6, mean ± standard deviation
[8] = Oral 50.0 mg/kg, single, dogs, n = 6, mean ± standard deviation
[9] = literature data (Table 6; equals Oral 50.0 mg/kg of Table 5)

Cc1cc(C2=NOC(c3cc(Cl)cc(Cl)c3)(C(F)(F)F)C2)ccc1C(=O)NCC(=O)NCC(F)(F)F (centres unmarked) [fluralaner, Fluralaner]
Adverse Events as a result of the product [1]: No Adverse Events | hepatic clearance ([2]; dogs and cats): low hepatic clearance | AUC in cats relative to dogs ([2]; topical and iv, 12.5 to 50 mg/kg dogs, 20 to 80 mg/kg cats): about half the AUC in dogs | AUCextra [3]: 68221.98 µg·days/L | AUClast [3]: 483104.77 µg·days/L | AUCtot [3]: 551326.76 µg·days/L | t1/2 [3]: 9.56 days | tmax [3]: 3 days | Cmax ([3]; compared with literature oral 50.0 mg/kg values): 31994.2 ng/mL | AUC(0-d112) [4, 5]: 87198 ± 11835 ng·days/mL | AUC(0→∞) [4, 5]: 87779 ± 12004 ng·days/mL | Cl [4, 5]: 5.83 ± 0.83 mL/h/kg | Cmax [4, 5]: 7109 ± 908 ng/mL | MRT [4, 5]: 20 ± 3 days | Vz [4, 5]: 3.1 ± 0.5 L/kg | t1/2 [4, 5]: 15 ± 2 days | tmax ([4]; Oral 12.5 mg/kg, single, dogs, n = 6, Median): 1 (range 0.08-2) day | AUC(0-d112) [4, 6]: 29665 ± 13858 ng·days/mL | AUC(0→∞) [4, 6]: 29922 ± 13808 ng·days/mL | Cmax [4, 6]: 2144 ± 860 ng/mL | MRT [4, 6]: 19 ± 2 days | t1/2 [4, 6]: 13 ± 1 days | tmax ([4]; Oral 25.0 mg/kg, single, dogs, n = 6, Median): 1 (range 1-2) day | AUC(0-d112) [4, 7]: 46115 ± 18932 ng·days/mL | AUC(0→∞) [4, 7]: 46416 ± 18929 ng·days/mL | Cmax [4, 7]: 3948 ± 1734 ng/mL | MRT [4, 7]: 15 ± 4 days | t1/2 [4, 7]: 12 ± 3 days | tmax ([4]; Oral 50.0 mg/kg, single, dogs, n = 6, Median): 1 (range 0.17-3) day | AUC(0-d112) [4, 8]: 70171 ± 26412 ng·days/mL | AUC(0→∞) [4, 8]: 70531 ± 26529 ng·days/mL | Cmax [4, 8]: 5419 ± 2086 ng/mL | MRT [4, 8]: 17 ± 3 days | t1/2 [4, 8]: 14 ± 1 days | AUCtot [4, 9]: 70531 µg·days/L | Cmax [4, 9]: 5419 ng/mL | t1/2 [4, 9]: 14 days | tmax [4, 9]: 1 days
